Measured values: patent US8158811B2, “Unsaturated fatty hydroxy acid derivatives and the dermocosmetologic use thereof” (Pierre Fabre Dermo-Cosmetique, priority 2005, dated 2012)

Legend:
desaturase DES2 = assay: keratinocyte differentiation, real-time RT-PCR of DES2 transcripts; type: cell-based, human; conditions: 1 μg/ml, NHK, 48 hours
Description: (§1) Normal human keratinocytes (NHK) proliferate and differentiate in vitro, forming stratified layers which mimic the basal organisation of the skin. Extracellular calcium concentrations in excess of 0.1 mM initiate a cascade of genome and non-genome events which take the keratinocytes from a proliferative phase towards a differentiation phase. Keratinocyte differentiation can then be evaluated by studying the expression of several markers such as keratins 1 and 10, transglutaminase 1, desaturase DES2, involucrine, FATP4 and ABCG1 transporters. We therefore evaluated the effect of certain hydroxyalcene carboxylic acids in an in vitro culture model.
(§2) Normal human keratinocytes are isolated from skin explants. They are cultured in KSFM medium (Gibco) with a low calcium content (0.1 mM) containing 25 μg/ml of BPE (bovine pituitary extract) and […] of EGF (epithelium growth factor). 24 hours after culturing, differentiation is triggered by the addition of calcium (final concentration 1.2 mM). The active ingredients are added or not at the same time as calcium at concentrations of 100 and 1 μg/ml in order to determine whether or not they have a potentialising effect on differentiation. Cells were then analysed 48 hours after the addition of calcium and these products.
(§3) Total RNA was extracted under cold conditions from keratinocytes.
(§4) After reverse transcription of mRNA into cDNA, PCRs were made up in 96 well plates (iCycler quantitative PCR apparatus, BioRad). Expression of transcripts of transglutaminase, desaturase (DES2), ABCG1 and FATP4 were standardized with respect to the expression of reference genes (GAPDH, UBC, HPRT).

FATP4 = assay: keratinocyte differentiation, real-time RT-PCR of FATP4 transcripts; type: cell-based, human; conditions: 1 μg/ml, NHK, 48 hours
Description: as §1, §2, §3, §4

ABCG1 = assay: keratinocyte differentiation, real-time RT-PCR of ABCG1 transcripts; type: cell-based, human; conditions: 1 μg/ml, NHK, 48 hours
Description: as §1, §2, §3, §4

[1] = test system: intracellular AOSs, fibroblast line L929; assay: in vitro assay of intracellular AOSs (H2DCF-DA probe) after H2O2/iron oxidative stress; type: cell-based, murin; conditions: pre-incubation 3 h, L929
Excerpt: We set up an in vitro study model of oxidative stress induced by H2O2/iron as H2O2 generates huge amounts of intracellular AOSs as a result of a chain reaction triggered by oxidation of membrane lipids.
This technique is based on the use of a fluorescent probe, 6-carboxy-2′,7′-dichlorodihydro fluorescein diacetate, di (acetoxymethyl ester) (H2DCF-DA) which once it penetrates into the cell is deacetylated by intracellular esterases and thus forms H2DCF. This product is oxidized by intracellular AOSs into a highly fluorescent compound: 2′,7′-dichlorofluorescein (DCF) (Suematsu M et al., 1996, Free Radicals Practical Approach, Punchard ed. P 83-99).
The materials and methods used for in vitro assay of intracellular AOSs are given below. • a) Cell tool • Cutaneous murin fibroblast cell line L929. • b) Materials • 96 well flat based microplate. • Cytofluor II cytofluorameter: Ref. PERCEPTIVE BIOSYSTEMS. • c) Reagents • Cell culture reagents: • Dulbecco's Modified Eagle Medium as the culture medium (DMEM) • Foetal calf serum • Phosphate buffer PBS pH 7.4 • Trypsin EDTA (1X) Fluorescent probe • 6-carboxy-2′,7′-dichlorodihydrofluorescein diacetate, di(acetoxymethyl ester) (PM.675,43) Cell stimulation products • Hydrogen peroxide (H2O2) 3% Ref. GIFRER (Gifrer Barbezat Laboratory) • Ferrous ammonium sulphate (Fe^2+) • Ferric ammonium sulphate (Fe^3+) • d) Products tested:
For the evaluation of unsaturated fatty hydroxy acid derivatives, the dilutions are prepared in freshly prepared culture medium for a concentration range of 0.02, 0.2, 2 and 20 ng/ml. • e) Protocol. Cell culturing.
Cells from the fibroblast line L929 were cultured in 96-well flat base microplates in 100 μl of DMEM supplemented with 10% foetal calf serum. These were incubated overnight at 37° C. in a humid atmosphere at 5% CO2. The blank plate without cells was evaluated using 6 wells.
Dilutions of the products to be tested and reference molecule were made up in culture medium without foetal calf serum then deposited in 7 wells at a rate of 100 μl per well.
Cells were then incubated for 3 hours at 37° C. in a humid atmosphere at 5% CO2.
Cells were rinsed in PBS 1X at a rate of 100 μl per well. They were then incubated for 30 minutes at 37° C. in a humid atmosphere at 5% CO2 with 50 μl of the H2DCF-DA probe at 5 μM.
After 30 minutes of contact with the probe alone, cells were incubated for 30 minutes at 37° C. in a humid atmosphere at 5% CO2 with the addition of 25 μl of H2O2 at 800 μM and 25 μl of ferrous iron and ferric iron solution at 8 mM in order to obtain final concentrations of 200 μM of H2O2 and 2 mM of ferrous iron and ferric iron.
Cells were then rinsed with PBS 1X at a rate of 100 μl per well then incubated for 30 minutes at 37° C. in a humid atmosphere at 5% CO2 with 100 μl of PBS 1X.
This incubation for 1 h 30 minutes at 37° C. allows intracellular esterases to deacetylate the probe into H2DCF which can be oxidized by the intracellular AOSs into DCF: a fluorescent compound whose formation is proportional to the quantity of intracellular AOSs.
The intensity of fluorescence is read on a cytofluorimeter at λexcitation=485 nm and λemission=530 nm. This reflects the amount of intracellular AOS produced.
The ratio below makes it possible to calculate the % protection against the production of intracellular AOSs for each product concentration tested (because the intensity of fluorescence or IF reflects the release of intracellular AOSs)
• Pre-incubation: 3 h • Number of tests=3 for all compounds. • Number of tests=18 for vit. E

transglutaminase 1 (TG1) = assay: keratinocyte differentiation, real-time RT-PCR of transglutaminase 1 transcripts; type: cell-based, human; conditions: 1 μg/ml, NHK, 48 hours
Description: as §1, §2, §3, §4

Interleukin 8 = assay: release of Interleukin 8 by keratinocytes NHK stimulated with PMA + calcium ionophore A23187 (ELISA); type: cell-based, human; conditions: 3 μg/ml, keratinocytes, PMA + A23187 6 hours
Description: In this study, carried out using 96 well plates, we evaluated the activity of hydroxyl alkine acids on the production of Interleukin 8 produced in the keratinocytes by phorbol ester PMA and calcium ionophore A23187.
A suspension of keratinocytes in supplemented KSFM was divided between 96 well plates (3.10^4 cells/wells) and incubated for 16 hours at 37° C. under an atmosphere of 5% CO2. The keratinocytes were then rinsed with PBS in order to eliminate non adhering cells then exposed to the products to be tested included in non supplemented KSFM (which could interfere with the assay).
The concentration tested in culture was 3 μg/ml. This was retained after a preliminary test to evaluate cytotoxicity (neutral red) and is not cytotoxic.
3 wells were used for each treatment. Cells were preincubated for 60 minutes with the products to be tested then stimulated, in parallel to negative controls without stimulant: Phorbol Myristate Acetate (PMA) 1 μm+Calcium ionophore (A23187) 0.1 μm.
Incubation for 6 hours at 37° C. in a humid air atmosphere containing 5% CO2.
The culture medium for each of the wells was recovered, centrifuged at 3000 rpm and stored at −80° C.
Cytokine assay: IL8 was assayed using the ELISA kit immunoenzyme method (immunotech).
The results are given as percentage activity/stimulated control.
The compounds according to the invention were evaluated in terms of anti-inflammatory activity on the release of Interleukin 8 by human keratinocytes NHK stimulated by phorbol ester PMA+calcium ionophore A23187.

PAR-2 receptors = target: T1, PAR-2 receptors (Homo sapiens, UniProt P55085); assay: calcium flux induced by trypsin stimulation of PAR-2 receptors in HaCaT keratinocytes (Fluo-4/AM); type: cell-based; conditions: trypsin 10 nM
T1 construct: PAR-2 receptors for trypsin present in human keratinocytes from the HaCaT line; endogenous in cells; host or cells: HaCaT human keratinocytes
T1 sequence (P55085 26-397): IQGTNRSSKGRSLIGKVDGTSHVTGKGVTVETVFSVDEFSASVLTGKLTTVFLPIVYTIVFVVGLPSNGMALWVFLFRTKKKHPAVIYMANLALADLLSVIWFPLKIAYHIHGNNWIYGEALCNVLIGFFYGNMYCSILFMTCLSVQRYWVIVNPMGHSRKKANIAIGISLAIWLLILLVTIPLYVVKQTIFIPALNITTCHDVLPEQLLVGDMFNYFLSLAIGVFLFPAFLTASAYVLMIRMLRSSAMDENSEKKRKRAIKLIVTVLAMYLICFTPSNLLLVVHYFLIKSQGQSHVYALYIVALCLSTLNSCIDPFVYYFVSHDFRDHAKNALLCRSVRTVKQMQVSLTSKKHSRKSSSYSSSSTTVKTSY
Excerpt: We therefore considered evaluating anti-PAR-2 activity of hydroxyl acid derivatives of formula I on the influx of intracellular calcium induced after specific stimulation by PAR-2 receptors for trypsin present in human keratinocytes from the HaCaT line.
This technique is based on the use of an esterified fluorescent probe by an AM group which facilitates its penetration by passive diffusion into the cell. The probe used is Fluo-4/AM. Only the de-esterified form bound to the calcium ion is excitable in fluorescence (at 485 nm) and emits at 535 nm.
In vitro, at the cell level, specific stimulation of the PAR-2 receptors by trypsin leads to mobilisation of intra and extracellular calcium detected with the aid of the fluorescent probe.

O=C(O)/C=C/CCCCCCO [n=5, R=H, Rn=H, R1=H, 9-hydroxy-nona-2t-enoic acid]
Induction Factor vs Control (CaCl2 1.2 mM) DES2 (desaturase DES2): 1.8 | Induction Factor vs Control (CaCl2 1.2 mM) FATP4 (FATP4): 1.0 | Induction Factor vs Control (CaCl2 1.2 mM) ABCG1 (ABCG1): 2.7 | Percentage inhibition of the intracellular production of AOS ([1]; 0.02 ng/ml): 56% | Percentage inhibition of the intracellular production of AOS ([1]; 0.2 ng/ml): 47% | Percentage inhibition of the intracellular production of AOS ([1]; 2 ng/ml): 46% | Percentage inhibition of the intracellular production of AOS ([1]; 20 ng/ml): 36% | Induction Factor vs Control (CaCl2 1.2 mM) TG1 (transglutaminase 1 (TG1)): 1.5

O=C(O)/C=C/CCCCCCCCCCCCCCCO [n=14, R=H, Rn=H, R1=H, 18-hydroxy-octadec-2t-enoic acid]
% inhibition of IL-8 release (Interleukin 8): Non-active | % inhibition (PAR-2 receptors; 10 μg/ml): −10% | % stimulation (PAR-2 receptors; 10 μg/ml): 14.68% | % inhibition (PAR-2 receptors; 30 μg/ml): 8% | % stimulation (PAR-2 receptors; 30 μg/ml): 12.90% | % inhibition (PAR-2 receptors; 100 μg/ml): 23% | % stimulation (PAR-2 receptors; 100 μg/ml): 11.37%
